Like-named read-outs stand apart in the source and are kept apart here. One block for each compound: values may come before it.
How the values were obtained:
rat adenine receptor [1] = molecular target: T1, rat adenine receptor (Rattus norvegicus, UniProt Q7TN49); settings: read-out: IC50 previously determined for the rat adenine receptor; cited from earlier work
T1 sequence (Q7TN49 1-304): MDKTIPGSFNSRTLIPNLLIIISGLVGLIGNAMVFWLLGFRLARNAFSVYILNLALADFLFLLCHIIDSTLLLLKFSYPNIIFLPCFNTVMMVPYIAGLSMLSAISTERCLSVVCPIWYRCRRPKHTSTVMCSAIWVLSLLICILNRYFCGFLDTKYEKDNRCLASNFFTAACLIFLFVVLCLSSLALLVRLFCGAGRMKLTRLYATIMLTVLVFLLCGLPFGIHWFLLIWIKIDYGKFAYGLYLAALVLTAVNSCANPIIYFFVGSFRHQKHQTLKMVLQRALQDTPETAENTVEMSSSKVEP

rat adenine receptor [2] = molecular target: T1, rat adenine receptor; settings: read-out: IC50 previously determined for the rat adenine receptor; cited from earlier work; remark: listed apart in the source
mouse adenine receptor = settings: cited from earlier work
[3] = molecular target: A. lwoffii (intact bacteria); experiment: [3H]adenine competition binding, intact bacteria; set-up: species or system Acinetobacter lwoffii; settings: read-out: binding affinity (IC50); A. lwoffii intact cells
[4] = molecular target: Achromobacter xylosoxidans (intact bacteria); experiment: [3H]adenine competition binding, intact bacteria; settings: for activity at Achromobacter binding sites: A. xylosoxidans binding studies
[5] = molecular target: A. denitrificans (intact bacteria); experiment: [3H]adenine competition binding, intact bacteria; set-up: species or system Achromobacter denitrificans; settings: read-out: binding affinity (IC50); A. denitrificans intact cells
[6] = system: A. denitrificans membrane preparations; experiment: [3H]adenine homologous competition, bacterial membrane preparations; set-up: species or system Achromobacter denitrificans; settings: read-out: binding affinity (IC50)
[7] = system: A. lwoffii membrane preparations; experiment: as above; format: binding, Acinetobacter lwoffii
[8] = molecular target: A. xylosoxidans membrane preparations; experiment: as above; format: binding, Achromobacter xylosoxidans; settings: estimated from homologous competition, n = 3
Saccharomyces cerevisiae = experiment: [3H]adenine binding to yeast control organism; settings: data not shown
[9] = system: microbial contaminations in Tris-HCl buffer; experiment: Radioligand binding to stored; settings: no added protein

Structure (SMILES): C[C@H]1O[C@@H](n2cnc3c(N)ncnc32)[C@H](O)[C@@H]1O [5′-deoxyadenosine]
IC50 (rat adenine receptor [1]): 823 nM

Structure (SMILES): Nc1ncnc2nc(Br)[nH]c12 [8-bromoadenine]
IC50 (rat adenine receptor [2]): 17.3 µM

Structure (SMILES): Nc1nc(N)c2[nH]cnc2n1 [2,6-Diaminopurine]
activity at Achromobacter binding sites [4]: completely inactive

Structure (SMILES): Nc1ncnc2c1ncn2[C@@H]1O[C@H](CO)[C@@H](O)[C@H]1O [Adenosine]
activity at Achromobacter binding sites [4]: completely inactive

Structure (SMILES): CCn1cnc2ncnc(N)c21 [7-ethyladenine]
IC50 (rat adenine receptor [2]): 47.3 µM

Continued, in another order:

IC50 [3]: 299 nM
Kd ([4]; estimated from homologous competition, intact bacteria, n = 8): 11 ± 1.2 nM
IC50 ([4]; read-out: IC50 value for the A. xylosoxidans binding site, intact bacteria, versus 10 nM [3H]adenine): 13 nM
IC50 [5]: 253 nM
IC50 [6]: 2400 nM
IC50 ([7]; contaminant 3 membrane preparation, versus 10 nM [3H]adenine, n = 1): 2350 nM
IC50 ([7]; read-out: binding affinity (IC50), A. lwoffii membrane preparations): 1000 nM
Kd [8]: 5.84 ± 1.12 nM
Structure (SMILES): Nc1ncnc2nc[nH]c12 [Adenine]
IC50 (rat adenine receptor [2]): 0.0299 µM
affinity for the mouse adenine receptor (mouse adenine receptor): 54.9 nM

[3H]adenine binding (Saccharomyces cerevisiae): no [^3H]adenine binding
specific [3H]adenine binding ([9]; buffer stored 2 weeks at 4°C): 562 ± 19 cpm
specific [3H]adenine binding ([9]; buffer stored 6 weeks at 4°C): approximately 7,000 cpm
Structure (SMILES): [3H]c1nc2ncnc(N)c2[nH]1 [[^3H]adenine, [8-^3H]Adenine]

activity at Achromobacter binding sites [4]: completely inactive
Structure (SMILES): Nc1nc(O)nc2nc[nH]c12 [2-Hydroxyadenine]

Source: PMC2072912 (Purinergic Signalling, 2007)
